IC50 data for 2 compounds are collected here from ChEMBL document CHEMBL1201862, “PubChem BioAssay data set” (2004).

Activity calls are given as the source filed them. No stated cut-off is given here; in the data, actives have a measured IC50 and inactives only a lower limit.

The target of this assay is Envelope glycoprotein gp160 (Human immunodeficiency virus 1, UniProt Q6QLK5). Put plainly: cell-free HIV fusion peptide-binding blockers – biochemical, uHTS, fluorescence dequenching, […] (AID 1986).
Envelope glycoprotein gp160, sequence (Q6QLK5 whole entry, the tested form may be a part): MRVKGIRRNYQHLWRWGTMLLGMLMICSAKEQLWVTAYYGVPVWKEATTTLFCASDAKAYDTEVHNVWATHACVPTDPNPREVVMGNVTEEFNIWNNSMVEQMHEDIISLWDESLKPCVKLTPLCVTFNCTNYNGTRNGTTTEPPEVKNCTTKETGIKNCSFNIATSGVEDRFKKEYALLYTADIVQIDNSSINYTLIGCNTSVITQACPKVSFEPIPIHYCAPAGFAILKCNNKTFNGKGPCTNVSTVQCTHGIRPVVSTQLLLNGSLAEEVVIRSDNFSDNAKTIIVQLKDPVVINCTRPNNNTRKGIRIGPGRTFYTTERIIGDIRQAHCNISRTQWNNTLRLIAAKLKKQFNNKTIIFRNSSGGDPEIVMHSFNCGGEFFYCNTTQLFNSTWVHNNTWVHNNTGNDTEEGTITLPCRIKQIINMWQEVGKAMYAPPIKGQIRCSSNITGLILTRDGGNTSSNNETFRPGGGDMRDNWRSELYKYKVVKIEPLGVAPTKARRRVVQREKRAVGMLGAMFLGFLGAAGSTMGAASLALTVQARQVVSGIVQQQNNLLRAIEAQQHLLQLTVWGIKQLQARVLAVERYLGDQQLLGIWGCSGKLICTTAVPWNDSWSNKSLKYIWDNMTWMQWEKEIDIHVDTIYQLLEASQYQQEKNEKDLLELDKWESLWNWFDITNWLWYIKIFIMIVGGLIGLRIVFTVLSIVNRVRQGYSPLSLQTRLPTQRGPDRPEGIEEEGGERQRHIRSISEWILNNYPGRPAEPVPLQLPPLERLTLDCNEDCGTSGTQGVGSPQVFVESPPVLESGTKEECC

For `C=CCOC(=O)C1=C(C)N=c2s/c(=C3\C(=O)N(CC(=O)O)c4ccccc43)c(=O)n2C1c1ccc(OC)cc1` (configuration not stated), the half-maximal inhibitory concentration (IC50) (as a rule, the concentration that gives 50% inhibition) is 18 µM (active). The result for `CCOC(=O)C1=C(C)N=c2s/c(=C/c3ccc(OCC(=O)O)cc3)c(=O)n2C1c1ccc(SC)cc1` (configuration not stated) reads 12.7 µM (active).
